From DBAASP
Values after ≈ are worked out from the molar mass of the structure shown. Values joined by “and” are separate entries in the source; they are usually repeats but may differ in a detail not shown here. Equal entries are not always repeated.

How the values were obtained:
Assay in all cases: ≥ marks a high value that may be exact or a test limit, other limits are often not marked, values filed in µg/mL are converted to µM
[1] = test system: Staphylococcus aureus ATCC 43300
[2] = test system: Escherichia coli UB1005
[3] = test system: Candida albicans CGMCC 2.2086
[4] = test system: Candida tropicalis CGMCC 2.1975
[5] = test system: Salmonella enterica subsp. enterica serovar Pullorum ATCC 7913
[6] = test system: Escherichia coli K88
[7] = test system: Staphylococcus aureus ATCC 25923
[8] = test system: Salmonella enterica subsp. enterica serovar Typhimurium ATCC 14028
[9] = test system: Staphylococcus epidermidis ATCC 12228
[10] = test system: Pseudomonas aeruginosa ATCC 27853
[11] = test system: Salmonella enterica subsp. enterica serovar Typhimurium C77-31
[12] = test system: Escherichia coli 078
[13] = test system: Escherichia coli K99
[14] = test system: Candida parapsilosis CGMCC 2.3989
[15] = test system: Staphylococcus aureus ATCC 29213
[16] = test system: Acinetobacter baumannii
[17] = test system: Listeria monocytogenes CGMCC 1.1075
[18] = test system: Bacillus cereus CGMCC 1.932
[19] = test system: Salmonella typhimurium ATCC 7731
[20] = test system: Bacillus subtilis CMCC 63501
[21] = test system: Enterococcus faecalis ATCC 29212
[22] = test system: Pseudomonas aeruginosa PAO1
[23] = test system: Candida albicans
[24] = test system: Salmonella enterica subsp. enterica serovar Choleraesuis CVCC 503
[25] = test system: Pseudomonas aeruginosa H1001

| SMILES | MIC [1] [µM] | MIC [2] [µM] | MIC [4] [µM] | MIC [5] [µM] | MIC [6] [µM] | MIC [7] [µM] | MIC [8] [µM] | MIC [9] [µM] | MIC [10] [µM] | MIC [11] [µM] | MIC [12] [µM] | MIC [13] [µM] | MIC [14] [µM] | MIC [15] [µM] | MIC [16] [µM] | MIC [17] [µM] | MIC [18] [µM] | MIC [19] [µM] | MIC [21] [µM] | MIC [22] [µM] | further results |
| --- | --- | --- | --- | --- | --- | --- | --- | --- | --- | --- | --- | --- | --- | --- | --- | --- | --- | --- | --- | --- | --- |
| CC[C@H](C)[C@H](NC(=O)[C@H](CCCN=C(N)N)NC(=O)[C@H](C)NC(=O)[C@H](C)N)C(=O)N[C@H](C(=O)N[C@@H](CC(C)C)C(=O)N[C@@H](CCCN=C(N)N)C(=O)N[C@@H](CC(N)=O)C(=O)N[C@@H](CCCN=C(N)N)C(=O)N[C@@H](Cc1ccccc1)C(=O)N[C@@H](CCCN=C(N)N)C(N)=O)[C@@H](C)CC [AARIILRNRFR] | > 128 | 16 (≈ 22.2 µg/mL) | ≥ 128 | 16 (≈ 22.2 µg/mL) | ≥ 32 | > 128 | 32 (≈ 44.3 µg/mL) | > 128 | > 128 | ≥ 32 | 16 (≈ 22.2 µg/mL) | 16 (≈ 22.2 µg/mL) | ≥ 128 | > 128 |  |  |  |  |  |  | MIC [3]: ≥ 128 µM |
| CC(C)C[C@H](NC(=O)[C@H](CCCN=C(N)N)NC(=O)[C@H](Cc1c[nH]c2ccccc12)NC(=O)[C@H](CCCN=C(N)N)NC(=O)[C@H](Cc1c[nH]c2ccccc12)NC(=O)[C@H](Cc1c[nH]c2ccccc12)NC(=O)[C@H](Cc1c[nH]c2ccccc12)NC(=O)[C@H](CCCN=C(N)N)NC(=O)[C@H](Cc1c[nH]c2ccccc12)NC(=O)[C@H](CCCN=C(N)N)NC(=O)CN)C(N)=O [GRWRWWWRWRL] | 2 (≈ 3.49 µg/mL) | 2 (≈ 3.49 µg/mL) |  | 2 (≈ 3.49 µg/mL) | 2 (≈ 3.49 µg/mL) | 2 (≈ 3.49 µg/mL) | 4 (≈ 6.97 µg/mL) | 2 (≈ 3.49 µg/mL) | 4 (≈ 6.97 µg/mL) |  | 2 (≈ 3.49 µg/mL) | 4 (≈ 6.97 µg/mL) |  |  | 1 (≈ 1.74 µg/mL) | 2 (≈ 3.49 µg/mL) | 8 (≈ 13.9 µg/mL) | 4 (≈ 6.97 µg/mL) | > 32 | 4 (≈ 6.97 µg/mL) | MIC [20]: 4 µM (≈ 6.97 µg/mL) |
| C[C@H](NC(=O)[C@H](Cc1c[nH]c2ccccc12)NC(=O)[C@H](Cc1c[nH]c2ccccc12)NC(=O)[C@H](CCCN=C(N)N)NC(=O)[C@H](CCCN=C(N)N)NC(=O)[C@H](Cc1c[nH]c2ccccc12)NC(=O)[C@H](CCCN=C(N)N)NC(=O)[C@H](CCCN=C(N)N)NC(=O)[C@H](Cc1c[nH]c2ccccc12)NC(=O)[C@H](Cc1c[nH]c2ccccc12)NC(=O)CN)C(N)=O [GWWRRWRRWWA] | 2 (≈ 3.4 µg/mL) | 2 (≈ 3.4 µg/mL) |  | 2 (≈ 3.4 µg/mL) | 2 (≈ 3.4 µg/mL) | 2 (≈ 3.4 µg/mL) | 4 (≈ 6.8 µg/mL) | 2 (≈ 3.4 µg/mL) | 4 (≈ 6.8 µg/mL) |  | 8 (≈ 13.6 µg/mL) | 4 (≈ 6.8 µg/mL) |  |  | 1 (≈ 1.7 µg/mL) | 2 (≈ 3.4 µg/mL) | 2 (≈ 3.4 µg/mL) | 4 (≈ 6.8 µg/mL) | 4 (≈ 6.8 µg/mL) | 2 (≈ 3.4 µg/mL) | MIC [20]: 0.5 µM (≈ 0.85 µg/mL) |
| CC(C)C[C@H](NC(=O)[C@H](CCCCN)NC(=O)[C@H](CCCCN)NC(=O)[C@H](CC(C)C)NC(=O)[C@H](CCCN=C(N)N)NC(=O)[C@H](CS)NC(=O)[C@H](C)NC(=O)[C@H](CC(C)C)NC(=O)[C@H](CCCCN)NC(=O)[C@H](CCCCN)NC(=O)[C@H](CC(C)C)NC(=O)[C@H](CCCN=C(N)N)NC(=O)[C@H](CS)NC(=O)[C@H](C)NC(=O)[C@H](CC(C)C)NC(=O)[C@H](CCCCN)NC(=O)[C@H](CCCCN)NC(=O)[C@@H](N)CC(C)C)C(=O)N[C@@H](C)C(=O)N[C@@H](CS)C(=O)N[C@@H](CCCN=C(N)N)C(N)=O [LKKLACRLKKLACRLKKLACR] | 4 (≈ 9.83 µg/mL) | 2 (≈ 4.91 µg/mL) | 1 (≈ 2.46 µg/mL) |  |  | 16 (≈ 39.3 µg/mL) | 4 (≈ 9.83 µg/mL) | 16 (≈ 39.3 µg/mL) | 4 (≈ 9.83 µg/mL) | 8 (≈ 19.7 µg/mL) |  |  | 8 (≈ 19.7 µg/mL) | 8 (≈ 19.7 µg/mL) |  |  |  |  | 16 (≈ 39.3 µg/mL) | 4 (≈ 9.83 µg/mL) | MIC [3]: 8 µM and 16 µM; MIC [23]: 4 µM (≈ 9.83 µg/mL); MIC [24]: 2 µM (≈ 4.91 µg/mL) |
| CC[C@H](C)[C@H](NC(=O)[C@H](CCCN=C(N)N)NC(=O)[C@H](CCCN=C(N)N)NC(=O)[C@@H]1CCCN1C(=O)[C@@H]1CCCN1C(=O)[C@H](CCCN=C(N)N)NC(=O)[C@@H]1CCCN1C(=O)[C@H](CCCN=C(N)N)NC(=O)[C@@H]1CCCN1C(=O)[C@H](CC(C)C)NC(=O)[C@H](Cc1ccc(O)cc1)NC(=O)[C@@H]1CCCN1C(=O)[C@@H]1CCCN1C(=O)[C@H](CCCCN)NC(=O)[C@H](CC(=O)O)NC(=O)[C@@H](N)C(C)C)C(=O)N[C@@H](Cc1ccc(O)cc1)C(=O)N[C@@H](CCCCN)C(=O)N[C@@H](CCCN=C(N)N)C(=O)NCC(=O)O [VDKPPYLPRPRPPRRIYKRG] |  |  |  |  |  |  |  |  |  |  |  |  |  |  |  |  |  |  |  |  | MIC [25]: 0.106 µM (≈ 0.26 µg/mL) |
| CC(C)C[C@H](NC(=O)[C@H](Cc1ccc(O)cc1)NC(=O)[C@@H]1CCCN1C(=O)[C@@H]1CCCN1C(=O)[C@H](CCCCN)NC(=O)[C@H](CC(=O)O)NC(=O)[C@@H](N)C(C)C)C(=O)N1CCC[C@H]1C(=O)N[C@@H](CCCN=C(N)N)C(=O)N1CCC[C@H]1C(=O)N[C@@H](CCCN=C(N)N)C(=O)N1CCC[C@H]1C(=O)N1CCC[C@H]1C(=O)N[C@@H](CCCN=C(N)N)C(=O)N[C@@H](CCCN=C(N)N)C(=O)N[C@@H](CCCCN)C(=O)N[C@@H](Cc1ccc(O)cc1)C(=O)N[C@@H](CC(N)=O)C(=O)N[C@@H](CCCN=C(N)N)C(=O)NCC(=O)O [VDKPPYLPRPRPPRRKYNRG] |  |  |  |  |  |  |  |  |  |  |  |  |  |  |  |  |  |  |  |  | MIC [25]: 0.0487 µM (≈ 0.12 µg/mL) |

Now from value to molecule, other results behind:

| MIC [1] [µM] | MIC [2] [µM] | MIC [4] [µM] | MIC [5] [µM] | MIC [6] [µM] | MIC [7] [µM] | MIC [8] [µM] | MIC [9] [µM] | MIC [10] [µM] | MIC [11] [µM] | MIC [12] [µM] | MIC [13] [µM] | MIC [14] [µM] | MIC [15] [µM] | MIC [16] [µM] | MIC [17] [µM] | MIC [18] [µM] | MIC [19] [µM] | MIC [21] [µM] | MIC [22] [µM] | SMILES | further results |
| --- | --- | --- | --- | --- | --- | --- | --- | --- | --- | --- | --- | --- | --- | --- | --- | --- | --- | --- | --- | --- | --- |
| 32 (≈ 78.6 µg/mL) | 2 (≈ 4.91 µg/mL) | 2 (≈ 4.91 µg/mL) |  |  | > 64 | 32 (≈ 78.6 µg/mL) | > 64 | 16 (≈ 39.3 µg/mL) | ≥ 64 |  |  | 8 (≈ 19.7 µg/mL) | > 64 |  |  |  |  | > 64 | 16 (≈ 39.3 µg/mL) | CC(C)C[C@H](NC(=O)[C@H](CCCN=C(N)N)NC(=O)[C@H](C)NC(=O)[C@H](CS)NC(=O)[C@H](CC(C)C)NC(=O)[C@H](CCCCN)NC(=O)[C@H](CCCCN)NC(=O)[C@H](CC(C)C)NC(=O)[C@H](CCCN=C(N)N)NC(=O)[C@H](C)NC(=O)[C@H](CS)NC(=O)[C@H](CC(C)C)NC(=O)[C@H](CCCCN)NC(=O)[C@H](CCCCN)NC(=O)[C@@H](N)CC(C)C)C(=O)N[C@@H](CCCCN)C(=O)N[C@@H](CCCCN)C(=O)N[C@@H](CC(C)C)C(=O)N[C@@H](CS)C(=O)N[C@@H](C)C(=O)N[C@@H](CCCN=C(N)N)C(N)=O [LKKLCARLKKLCARLKKLCAR] | MIC [23]: 5.66 µM (≈ 13.9 µg/mL); MIC [24]: 8 µM (≈ 19.7 µg/mL) |
| 2 (≈ 3.29 µg/mL) | 2 (≈ 3.29 µg/mL) |  | 8 (≈ 13.2 µg/mL) | 2 (≈ 3.29 µg/mL) | 4 (≈ 6.58 µg/mL) | 4 (≈ 6.58 µg/mL) | 2 (≈ 3.29 µg/mL) | 8 (≈ 13.2 µg/mL) |  | 2 (≈ 3.29 µg/mL) | 2 (≈ 3.29 µg/mL) |  |  | 1 (≈ 1.64 µg/mL) | 1 (≈ 1.64 µg/mL) | 16 (≈ 26.3 µg/mL) | 8 (≈ 13.2 µg/mL) | 4 (≈ 6.58 µg/mL) | 8 (≈ 13.2 µg/mL) | C[C@H](NC(=O)[C@H](CCCN=C(N)N)NC(=O)[C@H](Cc1c[nH]c2ccccc12)NC(=O)[C@H](CCCN=C(N)N)NC(=O)[C@H](Cc1c[nH]c2ccccc12)NC(=O)[C@H](Cc1c[nH]c2ccccc12)NC(=O)[C@H](Cc1c[nH]c2ccccc12)NC(=O)[C@H](CCCN=C(N)N)NC(=O)[C@H](Cc1c[nH]c2ccccc12)NC(=O)[C@@H](N)CCCN=C(N)N)C(N)=O [RWRWWWRWRA] | MIC [20]: 2 µM (≈ 3.29 µg/mL) |
